Experimental data from US7241791B2, “Substituted 4-(indazol-3-yl)phenols” (Wyeth, priority 2002, dated 2007).

Key:
[1] = molecular target: T1, human ERα (Homo sapiens, UniProt P03372); test: Creatine kinase expression (ER/CK) in Ad5-wt-hERα infected HAECT-1 cells; settings: for ER/CK % E2: efficacy relative to the maximal stimulation observed with E2
T1 sequence (P03372 1-595): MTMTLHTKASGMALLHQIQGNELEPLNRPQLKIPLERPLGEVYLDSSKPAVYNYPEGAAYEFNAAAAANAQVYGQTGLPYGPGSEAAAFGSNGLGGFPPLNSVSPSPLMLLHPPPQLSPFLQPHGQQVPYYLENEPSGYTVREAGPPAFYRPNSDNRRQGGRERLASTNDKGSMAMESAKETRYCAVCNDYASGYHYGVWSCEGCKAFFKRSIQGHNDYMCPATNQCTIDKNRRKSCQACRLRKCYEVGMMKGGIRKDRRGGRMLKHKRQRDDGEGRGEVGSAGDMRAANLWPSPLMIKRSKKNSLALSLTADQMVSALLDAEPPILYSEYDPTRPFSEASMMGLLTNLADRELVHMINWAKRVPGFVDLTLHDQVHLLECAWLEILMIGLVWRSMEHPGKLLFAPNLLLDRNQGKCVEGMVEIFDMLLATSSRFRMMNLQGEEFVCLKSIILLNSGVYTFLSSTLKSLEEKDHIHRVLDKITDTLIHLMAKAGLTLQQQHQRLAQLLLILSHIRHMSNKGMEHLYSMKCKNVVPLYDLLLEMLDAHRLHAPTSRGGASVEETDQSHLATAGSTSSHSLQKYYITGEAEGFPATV

[2] = molecular target: T1, human ERα; test: NF-κB luciferase reporter (ER/NF-KB-luc) in Ad5-wt-hERα infected HAECT-1 cells; settings: for IC50: ER/NF-KB-luc IC50, Ad5-wt-ER infected HAECT-1 cells, IL-1β; for Emax: HAECT1, read-out: ER/NF-KB-luc % E2, efficacy relative to the maximal inhibition observed with E2

SMILES | EC50 [1] [µM] | ER/CK % E2 [1] [% E2] | IC50 [2] [µM] | Emax [2] [%]
Cn1nc(-c2ccc(O)cc2O)c2cccc(Cl)c21 [Example 170, 4-(7-chloro-1-methyl-1H-indazol-3-yl)benzene-1,3-diol] | 0.827 | 28 | 0.276 | 77
Cc1cccc2c(-c3ccc(O)cc3)n(C(C)C)nc12 [Example 40, 4-[2-isopropyl-7-methyl-2H-indazol-3-yl]phenol] | 0.022 | 79 |  | 108
C=CCn1nc2c(Cl)cccc2c1-c1ccc(O)cc1C [Example 78, 4-(2-allyl-7-chloro-2H-indazol-3-yl)-3-methylphenol] | 2.2 | 32 | 0.59 | 90
CCCn1nc2c(Cl)cccc2c1-c1ccc(O)cc1 [Example 44, 4-[7-chloro-2-propyl-2H-indazol-3-yl]phenol] | 0.309 | 48 | 0.043 | 90
CCCn1nc2c(-c3ccccc3)cccc2c1-c1ccc(O)cc1 [Example 110, 4-(7-phenyl-2-propyl-2H-indazol-3-yl)phenol] | 0.012 | 82 | 0.002 | 89
C=CCn1nc(-c2ccc(O)cc2)c2cccc(C(F)(F)F)c21 [Example 58, 4-[1-allyl-7-(trifluoromethyl)-1H-indazol-3-yl]phenol] | 0.097 | 38 | 0.02 | 100
C=CCn1nc2c(C(F)(F)F)cccc2c1-c1ccc(O)cc1O [Example 75, 4-[2-allyl-7-(trifluoromethyl)-2H-indazol-3-yl]-1,3-benzenediol] | 0.982 | 48 | 0.063 | 83
CC(C)n1nc(-c2ccc(O)cc2O)c2cccc(F)c21 [Example 87, 4-(7-fluoro-1-isopropyl-1H-indazole-3-yl)benzene-1,3-diol] | 0.188 | 24 | 0.347 | 77
Oc1ccc(-c2nn(Cc3ccccc3)c3ccccc23)c(O)c1 [Example 183, 4-(1-benzyl-1H-indazol-3-yl)benzene-1,3-diol] | 2.93 | 48 | 0.431 | 135
C=CCn1nc2c(C(F)(F)F)cccc2c1-c1ccc(O)cc1C [Example 72, 4-[2-allyl-7-(trifluoromethyl)-2H-indazol-3-yl]-3-methylphenol] | 0.14 | 46 | 0.007 | 85
Cc1cc(O)ccc1-c1nn(C(C)C)c2c(Cl)cccc12 [Example 77, 4-(7-chloro-1-isopropyl-1H-indazol-3-yl)-3-methylphenol] | 0.302 | 29 | 0.041 | 87
Oc1ccc(-c2c3cccc(F)c3nn2C2CCCC2)cc1 [Example 61, 4-(2-cyclopentyl-7-fluoro-2H-indazol-3-yl)phenol] | 0.076 | 33 | 0.05 | 62
CC(C)(C)OC(=O)NCC(=O)NCC(=O)Oc1ccc(-c2nn(C3CCCC3)c3c(F)cccc23)cc1 [Example 116, 4-(1-cyclopentyl-7-fluoro-1H-indazol-3-yl)phenyl N-(tert-butoxycarbonyl)glycylglycinate] | 0.229 | 25 | 0.14 | 63
Cn1nc(-c2ccc(O)c(O)c2)c2cccc(C(F)(F)F)c21 [Example 176, 4-[1-methyl-7-(trifluoromethyl)-1H-indazol-3-yl]benzene-1,2-diol] | 1.04 | 70 | 0.587 | 111
CCCCn1nc(-c2ccc(O)cc2)c2ccc(Cl)cc21 [Example 199, 4-(1-butyl-6-chloro-1H-indazol-3-yl)phenol] | 1.26 | 42 | 0.487 | 100
Oc1ccc(-c2n[nH]c3cc(Cl)ccc23)cc1 [Example 134, 4-(6-chloro-1H-indazol-3-yl)phenol] | 1.93 | 36 | 0.897 | 76
CCCCCn1nc(-c2ccc(O)cc2)c2cccc(Cl)c21 [Example 41, 4-(7-chloro-1-pentyl-1H-indazol-3-yl)phenol] | 0.415 | 39 | 0.095 | 85
CCCn1nc2c(C)cccc2c1-c1ccc(O)cc1 [Example 38, 4-[7-methyl-2-propyl-2H-indazol-3-yl]phenol] | 0.025 | 70 |  | 89
CC(C)n1nc2c(F)cccc2c1-c1ccc(O)cc1 [Example 56, 4-(7-fluoro-2-isopropyl-2H-indazol-3-yl)phenol] | 0.477 | 47 | 0.014 | 96
CCCCCn1nc(-c2ccc(O)cc2O)c2cccc(C(F)(F)F)c21 [Example 73, 4-[1-pentyl-7-(trifluoromethyl)-1H-indazol-3-yl]benzen-1,3-diol] | 0.103 | 19 | 0.094 | 76
C=CCn1nc(-c2ccc(O)cc2)c2cccc(C)c21 [Example 57, 4-(1-allyl-7-methyl-1H-indazol-3-yl)phenol] | 0.205 | 45 | 0.045 | 89
CCCCCn1nc(-c2ccc(O)cc2)c2cccc(C(F)(F)F)c21 [Example 47, 4-[1-pentyl-7-(trifluoromethyl)-1H-indazol-3-yl]phenol] | 0.013 | 26 | 0.097 | 94
CCCn1nc2c(Cl)cccc2c1-c1ccc(O)cc1C [Example 79, 4-(7-chloro-2-propyl-2H-indazol-3-yl)-3-methylphenol] | 0.734 | 52 | 0.092 | 93

Now from value to compound:

EC50 [1] [µM] | ER/CK % E2 [1] [% E2] | IC50 [2] [µM] | Emax [2] [%] | SMILES
0.974 | 32 | 0.158 | 54 | Oc1ccc(-c2nn(C3CCCC3)c3c(-c4ccc(O)c(O)c4)cccc23)cc1 [Example 240, 4-[1-cyclopentyl-3-(4-hydroxyphenyl)-1H-indazol-7-yl]benzene-1,2-diol]
0.49 | 27 | 0.043 | 76 | CSc1ccc(-c2cccc3c(-c4ccc(O)cc4C)nn(C4CCCC4)c23)cc1 [Example 257, 4-{1-cyclopentyl-7-[4-(methylthio)phenyl]-1H-indazol-3-yl}-3-methylphenol]
0.165 | 17 | 0.03 | 84 | Cc1cc(O)ccc1-c1nn(C2CCCC2)c2c(-c3ccco3)cccc12 [Example 263, 4-[1-cyclopentyl-7-(2-furyl)-1H-indazol-3-yl)-3-methylphenol]
0.309 | 20 | 0.032 | 87 | CC(C)n1nc(-c2ccc(O)cc2)c2cccc(-c3ccsc3)c21 [Example 226, 4-(1-isopropyl-7-thien-3-yl-1H-indazol-3-yl)phenol]
1.07 | 48 | 0.196 | 117 | Oc1ccc(-c2n[nH]c3c(F)cccc23)cc1 [Example 203, 4-(7-fluoro-1H-indazol-3-yl)phenol]
0.143 | 38 | 0.018 | 73 | Cc1cc(O)ccc1-c1nn(C2CCCC2)c2c(-c3ccc(O)c(O)c3)cccc12 [Example 259, 4-[1-cyclopentyl-3-(4-hydroxy-2-methylphenyl)-1H-indazol-7-yl]benzene-1,2-diol]
0.213 | 35 | 0.068 | 77 | Cc1cc(O)ccc1-c1nn(C2CCCC2)c2c(-c3cc4ccccc4s3)cccc12 [Example 266, 4-[7-(1-benzothien-2-yl)-1-cyclopentyl-1H-indazol-3-yl]-3-methylphenol]
0.25 | 35 | 0.053 | 64 | CC(C)n1nc(-c2ccc(O)cc2)c2cccc(-c3ccco3)c21 [Example 267, 4-[7-(2-furyl)-1-isopropyl-1H-indazol-3-yl]phenol]
0.112 |  |  | 83 | CC(C)n1nc(-c2ccc(O)cc2)c2cccc(-c3ccccc3)c21 [Example 236, 4-(1-isopropyl-7-phenyl-1H-indazol-3-yl)phenol]
1.84 | 68 | 0.539 | 160 | Oc1ccc(-c2n[nH]c3ccccc23)cc1O [Example 202, 4-(1H-indazol-3-yl)benzene-1,2-diol]
2.34 | 48 | 0.112 | 84 | CCCCn1nc(-c2ccc(O)cc2)c2cccc(F)c21 [Example 220, 4-(1-butyl-7-fluoro-1H-indazol-3-yl)phenol]
